Patent US11253497B2, “Use of derivatives of polyunsaturated fatty acids as medicaments” (Lipopharma Therapeutics, S.L., priority 2009, dated 2022)

Experiments:
[1] = system: brain cancer cell (glioma) U118; test: Brain cancer (glioma) U118 cell growth; format: cell-based; settings: 72 hours of incubation
In short: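 Human cells in RPMI 1640 with 10% FBS at 37 °C, 5% CO2, exposed to D-PUFAs or PUFAs, then counted. glioma U118 cells run under the same conditions; values are means of three independent experiments.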

[2] = system: Spontaneously Hypertensive Rats (SHR); test: Blood pressure of SHR rats (cuff-tail method); format: in vivo, rat; settings: 200 mg/kg day p.o., 30 days, before treatment 214 mmHg
In short: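 SHR rats dosed orally at 200 mg/kg day for 30 days against water vehicle. At study end, blood pressure taken non-invasively by tail cuff and apoA-I assessed as gene expression by RT-PCR.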

[3] = Serum cholesterol, triglycerides and glucose in SHR rats (colorimetric); format: in vivo, rat; settings: 200 mg/kg daily p.o., 28 days, untreated rats 100%
In short: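 SHR rats dosed p.o. at 200 mg/kg daily for 28 days; serum cholesterol, triglycerides and glucose measured colorimetrically. Values given as percent of untreated control rats, set at 100%.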

[4] = system: TNF-α; test: Production of TNF-α in serum of LPS-injected C57BL6/J mice; format: in vivo; settings: LPS 20 μg i.p. (100%), 200 mg/kg p.o.
In short: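 C57BL6/J mice given intraperitoneal LPS (20 μg) to induce inflammation, then dosed orally with derivatives at 200 mg/kg. Serum TNF-α measured.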

[5] = system: breast cancer cells MDA-MB-231; test: Growth of breast cancer cells MDA-MB-231; format: cell-based; settings: 72 hours of incubation
In short: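 Human cancer cells in RPMI 1640 with 10% FBS at 37 °C, 5% CO2, exposed to D-PUFAs or PUFAs, then counted. Breast MDA-MB-231 cells run under the same conditions; values are means of three independent experiments.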

[6] = Lamellar-to-hexagonal (HII) transition temperature in DEPE model membranes by Differential Scanning Calorimetry; format: physicochemical; settings: for Temperature of lamellar-to-hexagonal transition: DEPE membranes, DEPE:D-PUFA 10:1 (mol:mol); for Transition temperature (lamellar to HII): DEPE (4 mM), 200 μM compound, series A, control 64.5
In short: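 Lamellar-to-HII transition temperature of DEPE membranes measured by differential scanning calorimetry, with DEPE:fatty acid at 10:1 mol:mol. Control membranes contained no fatty acid.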

[7] = system: lung cancer cells A549; test: Growth of lung cancer cells A549 (IC50); format: cell-based, human; settings: 72 hours of incubation
In short: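 Human A549 lung cancer cells in RPMI 1640 with 10% FBS at 37 °C, 5% CO2, exposed to D-PUFAs or PUFAs, then counted. values are means of three independent experiments.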

[8] = system: COX-2; test: Expression of COX-2 in LPS-stimulated monocytes in culture; format: cell-based, human; settings: positive control with LPS 100%
In short: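 Cultured monocytes stimulated with LPS; COX-2 protein level expressed as % inhibition relative to the LPS-only positive control (100%).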

[9] = system: Jurkat cells; test: Human leukaemia (Jurkat cells); format: cell-based; settings: 72 hours
Description: Overall, it may be seen that the series of compounds A and B are the best, so the effectiveness of these series against the development of leukaemia and liver cancer (Tables 9 and 10) was tested.

| Structure (SMILES) | IC50 [1] [µM] | Blood pressure [2] [mm Hg] | Cholesterol in serum (top number) [3] [%] | Glucose in serum (bottom number) [3] [%] | Triglycerides in serum (central number) [3] [%] | Production of TNF-α in serum [4] [%] | IC50 [5] [µM] | Temperature of lamellar-to-hexagonal transition [6] [°C] | IC50 [7] [µM] | COX-2 protein levels (expression), percentages of inhibition compared to positive control [8] [%] | IC50 [9] [µM] | IC50 ([5]; Homo sapiens, MDA-MB-231) [µM] | Transition temperature (lamellar to HII) [6] [°C] | IC50 ([7]; Homo sapiens, A549) [µM] | IC50 ([9]; Homo sapiens, Jurkat) [µM] |
| --- | --- | --- | --- | --- | --- | --- | --- | --- | --- | --- | --- | --- | --- | --- | --- |
| CCC=CCC=CCC=CCCCCCCC(O)C(=O)[O-].[Na+] (centres unmarked) [183B1] | 202 | 197 | 75 | 84 | 66 | 81 | 267 | 51.9 | 195 | 33 | 196 |  |  |  |  |
| CCC=CCC=CCC=CCC=CCC=CCCC(O)C(=O)O (centres unmarked) [205A1, 2-hydroxy-5,8,11,14,17-eicosapentaenoic acid] | 400 | 193 | 69 | 82 | 74 | 56 |  |  |  | 31 |  | 390 | 47.9 | 394 | 376 |
| CCC=CCC=CCC=CCC=CCC=CCCC(O)C(=O)[O-].[Na+] (centres unmarked) [205B1] | 391 | 187 | 58 | 87 | 65 | 69 | 208 | 48.3 | 202 | 39 | 294 |  |  |  |  |
| CCC=CCC=CCC=CCC=CCC=CCC=CCC(O)C(=O)O (centres unmarked) [226A1] | 214 | 194 | 64 | 79 | 71 | 73 | 187 |  | 195 | 23 | 85 |  | 44.4 |  |  |
